Assay: osmotic coefficient (dimensionless); mn = molality of the nth substance listed, in mol/kg
Settings: 101 kPa, Liquid, Knauer vapor pressure osmometer

Cc1ccc(S(=O)(=O)[O-])cc1.[Na+] [sodium p-toluenesulfonate] + O
osmotic coefficient
Settings | 313.15 K | 318.15 K | 323.15 K
m1 = 0.02 | 0.985 | 0.98 | 0.968
m1 = 0.04 | 0.964 | 0.96 | 0.956
m1 = 0.06 | 0.944 | 0.941 | 0.939
m1 = 0.08 | 0.933 | 0.931 | 0.928
m1 = 0.1 | 0.921 | 0.92 | 0.916
m1 = 0.12 | 0.911 | 0.908 | 0.904
m1 = 0.14 | 0.902 | 0.898 | 0.894
m1 = 0.15 | 0.897 | 0.895 | 0.892
m1 = 0.16 | 0.891 | 0.888 | 0.885
m1 = 0.17 | 0.888 | 0.887 | 0.882
m1 = 0.2 | 0.867 | 0.864 | 0.86
m1 = 0.22 | 0.876 | 0.873 | 0.869
m1 = 0.3 | 0.839 | 0.836 | 0.831
m1 = 0.35 | 0.806 | 0.803 | 0.8
m1 = 0.4 | 0.771 | 0.76 | 0.755
m1 = 0.45 | 0.76 | 0.756 | 0.75
m1 = 0.5 | 0.75 | 0.743 | 0.739
m1 = 0.6 | 0.72 | 0.711 | 0.696
m1 = 0.7 | 0.71 | 0.685 | 0.676
m1 = 0.8 | 0.701 | 0.683 | 0.674
